Experimental data as given in US11083725B2 (priority 2014, dated 2021).

System: NHBE cells
Assay: Biolog metabolic array: substrate use by NHBE cells with or without CA09 infection
Assay type: cell-based, human
Conditions: for Substrate use, 590 nm absorbance normalized to zero hour, 1 hr: Biolog PMM2, 1 hr; for Substrate use, 590 nm absorbance normalized to zero hour, 5 hr: Biolog PMM2, 5 hr; for Substrate use, 590 nm absorbance normalized to zero hour, 7 hr: Biolog PMM2, 7 hr
[1] = Control (uninfected) NHBE cells
[2] = Virus (CA09-infected, MOI 1) NHBE cells
[3] = Virus: CA09-infected NHBE cells, MOI 1, Biolog PMM2
[4] = Virus (CA09, MOI 1) infected NHBE cells

SMILES | 590 nm absorbance normalized to zero hour (substrate use), 1 hr [1] | 590 nm absorbance normalized to zero hour (substrate use), 2 hr [1] | 590 nm absorbance normalized to zero hour (substrate use), 3 hr [1] | 590 nm absorbance normalized to zero hour (substrate use), 4 hr [1] | 590 nm absorbance normalized to zero hour (substrate use), 6 hr [1] | 590 nm absorbance normalized to zero hour (substrate use), 8 hr [1] | 590 nm absorbance normalized to zero hour (substrate use), 9 hr [1] | 590 nm absorbance normalized to zero hour (substrate use), 10 hr [1] | 590 nm absorbance normalized to zero hour (substrate use), 11 hr [1] | Substrate use, 590 nm absorbance normalized to zero hour, 1 hr [1] | Substrate use, 590 nm absorbance normalized to zero hour, 5 hr [1] | Substrate use, 590 nm absorbance normalized to zero hour, 7 hr [1] | 590 nm absorbance normalized to zero hour (substrate use), 1 hr [2] | 590 nm absorbance normalized to zero hour (substrate use), 2 hr [2] | 590 nm absorbance normalized to zero hour (substrate use), 3 hr [2] | 590 nm absorbance normalized to zero hour (substrate use), 4 hr [2] | 590 nm absorbance normalized to zero hour (substrate use), 6 hr [2] | 590 nm absorbance normalized to zero hour (substrate use), 8 hr [2] | 590 nm absorbance normalized to zero hour (substrate use), 9 hr [2] | 590 nm absorbance normalized to zero hour (substrate use), 10 hr [2] | other results
COC(=O)[C@@H](C)O [Methyl D-Lactate] | 1.36 | 1.52 | 2.08 | 2.04 | 1.34 | 2.16 | 2.39 | 2.41 | 2.99 | 1.36 | 2.26 | 2.14 | 2.10 | 2.49 | 2.89 | 2.64 | 2.94 | 3.20 | 3.46 | 3.46 | 590 nm absorbance normalized to zero hour (substrate use), 5 hr [2]: 2.75; 590 nm absorbance normalized to zero hour (substrate use), 7 hr [2]: 3.10; 590 nm absorbance normalized to zero hour (substrate use), 11 hr [2]: 3.61; 590 nm absorbance normalized to zero hour (substrate use), 1 hr [3]: 2.10; 590 nm absorbance normalized to zero hour (substrate use), 2 hr [3]: 2.49; 590 nm absorbance normalized to zero hour (substrate use), 3 hr [3]: 2.89; 590 nm absorbance normalized to zero hour (substrate use), 4 hr [3]: 2.64; 590 nm absorbance normalized to zero hour (substrate use), 5 hr [3]: 2.75; 590 nm absorbance normalized to zero hour (substrate use), 6 hr [3]: 2.94; 590 nm absorbance normalized to zero hour (substrate use), 7 hr [3]: 3.10; 590 nm absorbance normalized to zero hour (substrate use), 8 hr [3]: 3.20; 590 nm absorbance normalized to zero hour (substrate use), 9 hr [3]: 3.46; 590 nm absorbance normalized to zero hour (substrate use), 10 hr [3]: 3.46; 590 nm absorbance normalized to zero hour (substrate use), 11 hr [3]: 3.61
COC(=O)C(C)=O [Methyl Pyruvate] | 1.32 | 1.57 | 1.25 | 1.36 | 0.77 | 1.65 | 1.74 | 1.79 | 1.76 | 1.32 | 1.59 | 1.51 | 1.93 | 2.20 | 2.60 | 2.51 | 2.87 | 3.03 | 3.24 | 3.21 | 590 nm absorbance normalized to zero hour (substrate use), 5 hr [2]: 2.66; 590 nm absorbance normalized to zero hour (substrate use), 7 hr [2]: 2.99; 590 nm absorbance normalized to zero hour (substrate use), 11 hr [2]: 3.04; 590 nm absorbance normalized to zero hour (substrate use), 1 hr [3]: 1.93; 590 nm absorbance normalized to zero hour (substrate use), 2 hr [3]: 2.20; 590 nm absorbance normalized to zero hour (substrate use), 3 hr [3]: 2.60; 590 nm absorbance normalized to zero hour (substrate use), 4 hr [3]: 2.51; 590 nm absorbance normalized to zero hour (substrate use), 5 hr [3]: 2.66; 590 nm absorbance normalized to zero hour (substrate use), 6 hr [3]: 2.87; 590 nm absorbance normalized to zero hour (substrate use), 7 hr [3]: 2.99; 590 nm absorbance normalized to zero hour (substrate use), 8 hr [3]: 3.03; 590 nm absorbance normalized to zero hour (substrate use), 9 hr [3]: 3.24; 590 nm absorbance normalized to zero hour (substrate use), 10 hr [3]: 3.21; 590 nm absorbance normalized to zero hour (substrate use), 11 hr [3]: 3.04
COC(=O)CCC(=O)O [Mono Methyl Succinate] | 1.07 | 1.14 | 1.10 | 1.10 | 0.53 | 1.09 | 1.11 | 1.11 | 1.11 | 1.07 | 1.13 | 1.07 | 1.44 | 1.71 | 1.97 | 2.04 | 2.33 | 2.45 | 2.58 | 2.55 | 590 nm absorbance normalized to zero hour (substrate use), 5 hr [2]: 2.16; 590 nm absorbance normalized to zero hour (substrate use), 7 hr [2]: 2.40; 590 nm absorbance normalized to zero hour (substrate use), 11 hr [2]: 2.67; 590 nm absorbance normalized to zero hour (substrate use), 1 hr [3]: 1.44; 590 nm absorbance normalized to zero hour (substrate use), 2 hr [3]: 1.71; 590 nm absorbance normalized to zero hour (substrate use), 3 hr [3]: 1.97; 590 nm absorbance normalized to zero hour (substrate use), 4 hr [3]: 2.04; 590 nm absorbance normalized to zero hour (substrate use), 5 hr [3]: 2.16; 590 nm absorbance normalized to zero hour (substrate use), 6 hr [3]: 2.33; 590 nm absorbance normalized to zero hour (substrate use), 7 hr [3]: 2.40; 590 nm absorbance normalized to zero hour (substrate use), 8 hr [3]: 2.45; 590 nm absorbance normalized to zero hour (substrate use), 9 hr [3]: 2.58; 590 nm absorbance normalized to zero hour (substrate use), 10 hr [3]: 2.55; 590 nm absorbance normalized to zero hour (substrate use), 11 hr [3]: 2.67
CC(=O)N[C@H]1C(O)O[C@H](CO)[C@@H](O)[C@@H]1O (stereo partly drawn) [N-Acetyl-D-Glucosamine] | 0.19 | 0.27 | 0.32 | 0.34 | 0.32 | 0.48 | 0.50 | 0.45 | 0.44 | 0.19 | 0.40 | 0.46 | 2.25 | 3.27 | 3.85 | 4.12 | 5.27 | 6.03 | 6.65 | 6.45 | Substrate use, 590 nm absorbance normalized to zero hour, 1 hr [4]: 2.25; Substrate use, 590 nm absorbance normalized to zero hour, 5 hr [4]: 4.99; Substrate use, 590 nm absorbance normalized to zero hour, 7 hr [4]: 5.67; 590 nm absorbance normalized to zero hour (substrate use), 11 hr [2]: 5.53
CC(=O)N[C@@H]1C(O)O[C@H](CO)[C@@H](O)[C@@H]1O (stereo partly drawn) [N-Acetyl-D-Mannosamine] | 0.90 | 0.77 | 0.71 | 0.68 | 0.65 | 0.63 | 0.58 | 0.67 | 0.66 | 0.90 | 0.68 | 0.61 | 1.40 | 1.88 | 2.13 | 2.22 | 2.70 | 3.09 | 3.29 | 3.34 | Substrate use, 590 nm absorbance normalized to zero hour, 1 hr [4]: 1.40; Substrate use, 590 nm absorbance normalized to zero hour, 5 hr [4]: 2.60; Substrate use, 590 nm absorbance normalized to zero hour, 7 hr [4]: 2.89; 590 nm absorbance normalized to zero hour (substrate use), 11 hr [2]: 3.55
